Patent US20240138406A1, “ANTIMICROBIAL PEPTIDE SCYAMPCIN44-63 AND APPLICATION THEREOF” (Xiamen University, priority 2021, published 2024)
No end group written: not given here.

Test system: Enterobacter cloacae QZ18103
Settings: QZ18103, 24 h

## GKKKKRNMMKTKEPGIIFFF-NH2 [Scyampcin44-63]
  MBC: 3 to 6 µM
